From patent US20150265621A1, “Treating Bronchiectasis With Doxofylline and Erdosteine” (Alitair Pharmaceuticals, Inc., priority 2014, published 2015)
Like-named read-outs stand apart in the source and are kept apart here.

Experiments:
[1] = test system: adults with CT scan confirmed bronchiectasis; conditions: nebulized, vs placebo, cited from earlier work
[2] = test system: bronchiectasis patients with mucus hypersecretion; assay: Summary (mean, weighted mean) of the three erdosteine bronchiectasis studies; assay type: in vivo, human; conditions: erdosteine 300 mg BID + PCT
Description: There are three published studies showing effectiveness of erdosteine in the treatment of bronchiectasis: Crisafulli et al (2007), Buquan and Xinke (2011) and Yipin (2012). The three studies have a total of 170 subjects, 85 of whom received standard care consisting of Percussive Chest Therapy (PCT) for up to 15 days. The remaining 85 received PCT plus treatment with erdosteine 300 mg BID for the same length of time. […] FEV1, FVC, PEF, MIP, MEP, PaO2 and PaCO2 measured according to test methods described by Mason et al, 2005. FEV1=forced expiratory volume in one second, measured in liters. FVC=forced vital capacity, total amount air the patient can expel in one breath, measured in liters. PEF=peak expiratory flow, measure in liters per second. MIP=maximum inhalation pressure. MEP=Maximum expiratory pressure. PaO2=partial pressure of oxygen. PaCO2=partial pressure of carbon dioxide. […] Again, the results are similar in terms of order of magnitude and consistent in showing an incremental benefit to adding erdosteine to PCT in bronchiectasis patients. […] The use of erdosteine with PCT produces significant and clinically meaningful changes in the respiratory functioning of patients with bronchiectasis and mucus hypersecretion as compared to PCT alone.

[3] = test system: bronchiectasis patients with mucus hypersecretion; conditions: cited from earlier work
[4] = test system: bronchiectasis patients with mucus hypersecretion; conditions: Crisafulli; erdosteine 300 mg BID + PCT up to 15 days; 15 subjects; cited from earlier work
[5] = test system: bronchiectasis patients with mucus hypersecretion; conditions: Buquan; erdosteine 300 mg BID + PCT up to 15 days; 30 subjects; cited from earlier work
[6] = test system: bronchiectasis patients with mucus hypersecretion; conditions: Yipin; erdosteine 300 mg BID + PCT up to 15 days; 40 subjects; cited from earlier work
[7] = test system: chronic asthma subjects; conditions: randomized clinical study; cited from earlier work
[8] = test system: CF patients; conditions: intravenous; cited from earlier work
[9] = test system: patients with theophylline overdose; conditions: cited from earlier work
[10] = weighted by % total subjects (18%, 47%, 35%)

NC[C@H]1O[C@H](O[C@H]2[C@H](O)[C@@H](O[C@H]3O[C@H](CO)[C@@H](O)[C@H](N)[C@H]3O)[C@H](N)C[C@@H]2N)[C@H](N)C[C@@H]1O [tobramycin]
effect on FEV1 ([1]; after four weeks of treatment): no effect
eradication of P. aeruginosa ([1]; four weeks of treatment): significant effect

O=C(O)CSCC(=O)NC1CCSC1=O (stereo not shown) [Erdo, erdosteine]
FEV1 change vs baseline, Mean ([2]; mean of the three studies): 0.2 L
FVC change vs baseline, Mean ([2]; mean of the three studies): 0.3 L
MEP change vs baseline, Mean ([2]; mean of the three studies): 9.3 Kpa
MIP change vs baseline, Mean ([2]; mean of the three studies): 9 kPa
PEF change vs baseline, Mean ([2]; mean of the three studies): 0.3 L/s
PaCO2 change vs baseline, Mean ([2]; mean of the three studies): 1.3 mm Hg
PaO2 change vs baseline, Mean ([2]; mean of the three studies): 5.5 mm Hg
FEV1 change vs baseline, Wtd Mean Diff [2, 10]: 0.26 L
FVC change vs baseline, Wtd Mean Diff [2, 10]: 0.36 L
MEP change vs baseline, Wtd Mean Diff [2, 10]: 9.69 Kpa
MIP change vs baseline, Wtd Mean Diff [2, 10]: 9.09 kPa
PEF change vs baseline, Wtd Mean Diff [2, 10]: 0.35 L/s
PaCO2 change vs baseline, Wtd Mean Diff [2, 10]: 1.35 mm Hg
PaO2 change vs baseline, Wtd Mean Diff [2, 10]: 5.70 mm Hg
effect of erdosteine with PCT compared to PCT alone on respiratory functioning [3]: significantly enhances the effect of PCT alone
FEV1 change vs baseline [4]: 0.2 L
FVC change vs baseline [4]: 0.3 L
MEP change vs baseline [4]: 8.4 Kpa
MIP change vs baseline [4]: 8.9 kPa
PEF change vs baseline [4]: 0.3 L/s
PaCO2 change vs baseline [4]: 0.1 mm Hg
PaO2 change vs baseline [4]: 5.1 mm Hg
FEV1 change vs baseline [5]: 0.19 L
FVC change vs baseline [5]: 0.31 L
MEP change vs baseline [5]: 8.2 Kpa
MIP change vs baseline [5]: 8.1 kPa
PEF change vs baseline [5]: 0.3 L/s
PaCO2 change vs baseline [5]: 0.3 mm Hg
PaO2 change vs baseline [5]: 5.2 mm Hg
FEV1 change vs baseline [6]: 0.34 L
FVC change vs baseline [6]: 0.43 L
MEP change vs baseline [6]: 11.3 Kpa
MIP change vs baseline [6]: 9.9 kPa
PEF change vs baseline [6]: 0.4 L/s
PaCO2 change vs baseline [6]: 2.6 mm Hg
PaO2 change vs baseline [6]: 6.3 mm Hg

Cn1c(=O)c2c(ncn2CC2OCCO2)n(C)c1=O [doxofylline]
effectiveness in treating chronic asthma compared to theophylline [7]: as effective as theophylline
subjects dropped out of the study due to side effects [7]: 11%

Cn1c(=O)c2[nH]cnc2n(C)c1=O [theophylline]
effect on FEV1 and FEF 0.75 [8]: positive results
patients treated in an emergency setting for overdose who die [9]: Ten
subjects dropped out of the study due to side effects [7]: 31%
